Data from patent US20080299542A1, “IDENTIFICATION OF OXIDATIVELY MODIFIED PEPTIDE SEQUENCES IN THE PROTEOME (LOSCALZO)” (priority 2007, published 2008).
Entries after “also recorded” stand apart in the source; their conditions may differ.

How the values were obtained:
[1] = system: EGFR; test: EGF uptake and EGF-induced EGFR phosphorylation; format: cell-based; conditions: Chang liver cells
Procedure: (§1) Surface receptor functional assessment: After treatment, cells was incubated with 500 ng/ml Alexa 488-labeled EGF in DMEM containing 1% BSA, 50 μg/ml Alexa-488-labeled transferrin for 10 min, or 10 μg/ml Alexa 488-labeled AcLDL for 30 min in growth medium, and then washed with cold HBSS four times before fixation with formaldehyde at room temperature. Cells were also trypsinzed and ligand uptake quantified by flow cytometry (FACS Calibur). For protein phosphorylation studies, cell lysates were also collected 5 min after stimulation with ligands. Western blotting and indirect immunofluorescence: Cells were lysed in cell lysis buffer (Cell Signaling, Danvers, Mass.). Lysate protein concentration was measured by the Biorad DC protein assay. Equal amounts of proteins were separated by MOPS-SDS-PAGE, then transferred to poly(vinylidene difluoride) membranes (Invitrogen, Carlsbad, Calif.). Membranes were then blocked and the signal detected with a BM Chemiluminescence Blotting kit (Roche Diagnostics, Basel, Switzerland), BM POD precipitating blotting substrate (Roche Diagnostics, Basel, Switzerland), or Supersignal West Femto blotting kit (Pierce, Rockford, Ill.) according to the manufacturer's instructions. […] For indirect immunofluorescence studies, formaldehyde-fixed cells were permeablized with 0.3% Triton for 10 min, blocked with 1% BSA for 30 min, then detected with antibodies. […]

[2] = system: IGF-1R; test: IGF-1-induced IGF-1R phosphorylation; format: cell-based; conditions: in the presence of 0.3 mM DTT; Chang liver cells; FIG. 8c
Procedure: as §1

[3] = system: LOX-1; test: acetylated LDL (AcLDL) uptake by HPAECs; format: cell-based, human; conditions: for uptake of acetylated LDL (AcLDL) by HPAECs: mitochondrial inhibitors for 8 hr, FIG. 5
Procedure: (§2) Surface receptor functional assessment: After treatment, cells was incubated with 500 ng/ml Alexa 488-labeled EGF in DMEM containing 1% BSA, 50 μg/ml Alexa-488-labeled transferrin for 10 min, or 10 μg/ml Alexa 488-labeled AcLDL for 30 min in growth medium, and then washed with cold HBSS four times before fixation with formaldehyde at room temperature. Cells were also trypsinzed and ligand uptake quantified by flow cytometry (FACS Calibur). For protein phosphorylation studies, cell lysates were also collected 5 min after stimulation with ligands.

[4] = system: CD71; test: transferrin uptake (mediated by CD71) by HPAECs; format: cell-based, human; conditions: 0.5 mM DTT, 30 min, flow cytometry
Procedure: as §2

[5] = system: FGFR; test: bFGF-induced FGFR phosphorylation; format: cell-based; conditions: in the presence of 0.3 mM DTT; Chang liver cells; FIG. 8d
Procedure: as §1

[6] = system: protein disulfides in BAECs; test: in situ fluorescence imaging of cellular protein disulfides (BAECs); format: cell-based, Bovine; conditions: for protein disulfide formation: BAECs, mitochondrial inhibitors, FIG. 1b
Procedure: (§3) Detection of cellular disulfide-containing proteins: We developed a method for imaging disulfide-containing proteins in situ. Methanol-fixed cells were treated with 200 mM iodoacetamide in 100 mM Tris, pH 8.3, 5 mM EDTA at 37° C. for 1 hour to block thiols. The cells were then washed six times with Tris-buffered saline, pH 8.0, 5 mM EDTA, after which they were incubated with 5 mM EDTA, 1 mM tris(2-carboxyethyl) phosphine, pH 8.3, at room temperature to reduce disulfides and with 1 mM 5-iodoacetamidofluorescein (5-IAF) in 100 mM Tris to label the resulting thiols for 1 hour. Excess dye was removed by washing the cells repeatedly with TBS. Stained cells fixed to slides were then treated with Prolonged Antifade Mounting Medium, and cell nuclei were counterstained with DAPI. Fluorescent images were taken with a Nikon fluorescence TE 2000 microscope. Fluorescence intensity was quantified by subtracting background fluorescence, then integrating the image with the NIH IMAGEJ program and normalizing by cell number as determined by DAPI fluorescence. Four fields magnified×20 were analyzed per experiment, with 100-200 cells counted per sample.

[7] = system: vWF; test: multimeric vWF immunoblot / immunofluorescence in HPAECs; format: cell-based, human; conditions: FIG. 1i
Procedure: (§4) Western blotting and indirect immunofluorescence: Cells were lysed in cell lysis buffer (Cell Signaling, Danvers, Mass.). Lysate protein concentration was measured by the Biorad DC protein assay. Equal amounts of proteins were separated by MOPS-SDS-PAGE, then transferred to poly(vinylidene difluoride) membranes (Invitrogen, Carlsbad, Calif.). Membranes were then blocked and the signal detected with a BM Chemiluminescence Blotting kit (Roche Diagnostics, Basel, Switzerland), BM POD precipitating blotting substrate (Roche Diagnostics, Basel, Switzerland), or Supersignal West Femto blotting kit (Pierce, Rockford, Ill.) according to the manufacturer's instructions. For protein inter-subunit disulfide bond detection, cells were lysed in cell lysis buffer containing 200 mM N-ethyl-maleimide and incubated at 37° C. for 1 hr. LDS sample buffer with or without DTT was added to cell lysates, and proteins were separated by MOPS-SDS-PAGE. For indirect immunofluorescence studies, formaldehyde-fixed cells were permeablized with 0.3% Triton for 10 min, blocked with 1% BSA for 30 min, then detected with antibodies. Primary antibodies used in this study include monoclonal or polyclonal antibodies against CD98, PECAM, endoglin, vWF, PDI, pEGFR, EGFR, FGFR, and CD71 from Santa Cruz; against actin, from Sigma, St. Louis, Mo.; against pFGFR, pIGF1R, and IGF1R from Cell Signaling (Danvers, Mass.); against thioredoxin, MnSOD, catalase, and GAPDH from Abcam, Cambridge, Mass.; and against LOX-1 from Serotec, Raleigh, N.C. All secondary fluorescent-labeled or horseradish peroxidase-conjugated antibodies were obtained from Jackson Immunoresearch, West Grove, Pa.

[8] = system: CD98; test: CD98 heterodimer blot in Chang liver cells; format: cell-based; conditions: mitochondrial inhibitor treated
Procedure: as §4, with “Primary antibodies used in this study include monoclonal or polyclonal antibodies against CD98, PECAM, endoglin, vWF, PDI, pEGFR, EGFR, FGFR, and CD71 from Santa Cruz; against actin, from Sigma, St. Louis, Mo.; against pFGFR, pIGF1R, and IGF1R from Cell Signaling (Danvers, Mass.); against thioredoxin, MnSOD, catalase, and GAPDH from Abcam, Cambridge, Mass.; and against LOX-1 from Serotec, Raleigh, N.C. All secondary fluorescent-labeled or horseradish peroxidase-conjugated antibodies were obtained from Jackson Immunoresearch, West Grove, Pa.” left out

[9] = system: GRP94; test: ER stress marker induction, GRP94; format: cell-based; conditions: compared to tunicamycin and thapsigargin treatments
Procedure: as §4, with “Primary antibodies used in this study include monoclonal or polyclonal antibodies against CD98, PECAM, endoglin, vWF, PDI, pEGFR, EGFR, FGFR, and CD71 from Santa Cruz; against actin, from Sigma, St. Louis, Mo.; against pFGFR, pIGF1R, and IGF1R from Cell Signaling (Danvers, Mass.); against thioredoxin, MnSOD, catalase, and GAPDH from Abcam, Cambridge, Mass.; and against LOX-1 from Serotec, Raleigh, N.C. All secondary fluorescent-labeled or horseradish peroxidase-conjugated antibodies were obtained from Jackson Immunoresearch, West Grove, Pa.” left out

[10] = system: protein disulfides in Chang liver cells; test: in situ fluorescence imaging of cellular protein disulfides (Chang liver cells); format: cell-based; conditions: CCCP for 4 hr, FIG. 1a
Procedure: as §3

[11] = system: Endoglin; test: endoglin disulfide-dependent detection and localization in HPAECs; format: cell-based, human; conditions: non-reducing immunoblot; FIG. 1j
Procedure: as §4, with “Primary antibodies used in this study include monoclonal or polyclonal antibodies against CD98, PECAM, endoglin, vWF, PDI, pEGFR, EGFR, FGFR, and CD71 from Santa Cruz; against actin, from Sigma, St. Louis, Mo.; against pFGFR, pIGF1R, and IGF1R from Cell Signaling (Danvers, Mass.); against thioredoxin, MnSOD, catalase, and GAPDH from Abcam, Cambridge, Mass.; and against LOX-1 from Serotec, Raleigh, N.C. All secondary fluorescent-labeled or horseradish peroxidase-conjugated antibodies were obtained from Jackson Immunoresearch, West Grove, Pa.” left out

[12] = system: HPAECs; test: mitochondrial membrane potential by JC-1 fluorescence; format: cell-based, human; conditions: after CCCP treatment, FIG. 5b
Procedure: Mitochondrial membrane potential measurement: Cells were incubated with medium containing 1 ug/ml JC-1 for […], washed with HBSS, and then observed by fluorescence microscopy immediately. Alternatively, fluorescence was measured with a GEMINI XPS microplate reader, with an excitation wavelength of 488 nm and an emission wavelength of 536 nm, as well as an excitation wavelength of 528 nm and an emission wavelength 590 nm. Mitochondrial membrane potential was expressed as the ratio of emission at 590 nm to that at 536 nm.

[13] = system: GRP78; test: ER stress marker induction, GRP78; format: cell-based; conditions: compared to tunicamycin and thapsigargin treatments
Procedure: as §4, with “Primary antibodies used in this study include monoclonal or polyclonal antibodies against CD98, PECAM, endoglin, vWF, PDI, pEGFR, EGFR, FGFR, and CD71 from Santa Cruz; against actin, from Sigma, St. Louis, Mo.; against pFGFR, pIGF1R, and IGF1R from Cell Signaling (Danvers, Mass.); against thioredoxin, MnSOD, catalase, and GAPDH from Abcam, Cambridge, Mass.; and against LOX-1 from Serotec, Raleigh, N.C. All secondary fluorescent-labeled or horseradish peroxidase-conjugated antibodies were obtained from Jackson Immunoresearch, West Grove, Pa.” left out

`O[C@H](CS)[C@H](O)CS` (racemic) [DTT, dithiothreitol] was tested, and the “uptake of EGF” value ([1]; 0.5 mM DTT, 30 min, flow cytometry) was “did not change”, the “EGFR activation by EGF” value ([1]; in the presence of 0.5 mM DTT) was “fully activated” and the “phosphorylation of IGF-1Rβ” value [2] was “completely inhibited”. The “uptake of AcLDL by HPAECs” value ([3]; 0.5 mM DTT, 30 min, flow cytometry, FIG. 8a) was “decreased”, the uptake of transferrin [4] was “did not change” and the “phosphorylation of FGFR” value [5] was “completely inhibited”.
With `CCCCCC[C@H]1C(=O)O[C@H](C)[C@H](NC(=O)c2cccc(NC=O)c2O)C(=O)O[C@@H](C)[C@@H]1OC(=O)CC(C)C` [ATM, antimycin A] the protein disulfide formation [6] was “least effective”.
For `CCCCS(=N)(=O)CCC(N)C(=O)O` (stereo not shown) [BSO, buthionine sulfoximine], the “disulfide-linked multimeric vWF” value [7] was “increased”.
For `N#CC(C#N)=NNc1cccc(Cl)c1` [CCCP, carbonylcyanide m-chlorophenylhydrazone], the “heterodimer CD98” value [8] was “remained intact”, the “upregulation of GRP94” value [9] was “did not induce significant upregulation” and the “uptake of acetylated LDL (AcLDL) by HPAECs” value [3] was “decreased”. The “disulfide-linked multimeric vWF” value [7] was “dissociation of disulfide-linked multimeric vWF”, the “overall protein disulfide signal” value [10] was “decreased” and the protein disulfide formation [6] was “decreased; also recorded: most effective”. For the same compound, the “effect on protein disulfide formation in MitoCAT overexpressing cells” value ([6]; CCCP for 8 hrs, FIG. 4) was “no longer had any effect”, the “endoglin detected by P4A4 antibody” value [11] was “less endoglin was detected” and the “mitochondrial membrane potential (MMP)” value [12] was “immediate loss”. The “upregulation of GRP78” value [13] was “did not induce significant upregulation”.
With `C[C@]12CC[C@H](O)CC1=CC[C@@H]1[C@@H]2CC[C@]2(C)C(=O)CC[C@@H]12` [DHEA, dehydroepiandrosterone] the “disulfide-linked multimeric vWF” value [7] was “increased”.
With `O=C(CC(=O)C(F)(F)F)c1cccs1` [TTFA, thienoyltrifluoroacetone] the “uptake of acetylated LDL (AcLDL) by HPAECs” value [3] was “decreased”, the protein disulfide formation [6] was “decreased” and the “endoglin detected by P4A4 antibody” value [11] was “less endoglin was detected”.
In the case of `O=c1c2ccccc2[se]n1-c1ccccc1` [ebselen], the “inhibition of disulfide formation” value ([6]; FIG. 1c, p<0.01, cell type not stated) is reported as 55%.
With `CO/C(=C/C(N)=O)[C@H](C)[C@H](/C=C/c1csc(-c2csc([C@@H](C)/C=C/C=C/C(C)C)n2)n1)OC` [myxothiazol] the protein disulfide formation [6] was “decreased”.
With `C=C(C)[C@H]1Cc2c(ccc3c2O[C@@H]2COc4cc(OC)c(OC)cc4[C@@H]2C3=O)O1` [rotenone] the protein disulfide formation [6] was “decreased”.
